Data: patent US20230050846A1, “TREATMENT OF HEPATIC AND CARDIOVASCULAR DISORDERS” (LIFESEARCH, priority 2019, published 2023)
Peptide text beside a SMILES is read from it. * marks the point of attachment. Palmitoyl = CCCCCCCCCCCCCCCC(=O)*

Key:
[1] = system: C57B/L6J mice fed western-diet; test: Western diet-induced hepatic steatosis mouse model; format: in vivo; settings: ip daily 1 mg/kg/day
Procedure: (§1) Wild-type C57B/L6J male mice were purchased from Janvier Labs (Le Genest Saint Isle, France). Mice were caged in animal rooms under specific pathogen free conditions at the animal facility of Rangueil (Anexplo platform, US006, Toulouse, France) with a light/dark schedule of 12 h/12 h. At the initiation of the dietary intervention, all animals were 8 weeks old and were fed ad libitum with a normal chow diet (#V1535 R/M-H, Ssniff, Germany). All animal experimental procedures were conducted in accordance with institutional guidelines on animal experimentation approved by the local ethical committee of animal care and are conformed to the guidelines from Directive 2010/63/EU of the European Parliament on the protection of animals used for scientific purposes or the NIH guideline.
8 weeks old mice were fed fed western-diet for 4-weeks (Envigo #TD.88137 containing 0.2% cholesterol, 42% kcal from fat, 34% sucrose by weight). For the 2 last weeks of the 4-week period, mice were daily intraperitoneally administrated at 1 mg/kg/day with the peptide of formula (I) or PBS (control group). Following the treatment period, mice were fasted overnight, anesthetized by intra-peritoneal injection of ketamine and xylazine hydrochloride then killed by exsanguination. Body weight, liver triglyceride content, plasma lipids and transaminases were determined at sacrifice.
100 mg of liver tissue were homogenized in 900 μL of phosphate buffer pH 7.4 until complete tissue lysis. Lipids were extracted by mixing 125 μL of lysates with 1 mL of CHCl3:MeOH (2:1). After centrifugation, the chloroform phase was evaporated under nitrogen flux, and the dried residue was solubilized in 200 μL of isopropanol. Triglycerides were measured using commercial kits based on GPO-PAP detection method (Biolabo SA, Maizy, France). Results were expressed as mg of triglycerides/g liver.
Triglycerides and cholesterol levels were determined using commercial colorimetric kits (Biolabo SA, Maizy, France) based on CHOD-PAP and GPO-PAP detection methods, coupling enzymatic reaction and spectrophotometric detection of reaction end products. Alanine-aminotransferase (ALT) and aspartate-aminotransferase (AST) levels were determined using a COBAS-MIRA+ biochemical analyser (Anexplo facility, Toulouse, France).
Blood glucose levels were measured by tail vein sampling with portable glucometer (Accu-check, Roche) 30 min before oral glucose load and at 0, 15, 30, 45, 60, 90 and 120 min after oral glucose load. Plasma insulin concentration was determined 30 min before and 15 min after glucose loading in 5 μL of plasma using an ELISA kit (Mercodia, Uppsala, Sweden) according to the manufacturer's instructions.

wild-type C57B/L6J mice = test: Femoral artery blood flow in conscious mice; format: in vivo, mouse; settings: data not shown
Text: According to the protocol disclosed in [5], the peptide of formula (I) increased femoral artery blood flow in conscious wild-type C57B/L6J mice in a process that strictly depend on endothelial NO production (data not shown).

C57B/L6J mice fed CDAHFD = test: CDAHFD diet-induced NASH associated hepatic fibrosis mouse model; format: in vivo; settings: sc infusion two weeks, 5 mg/kg BW/day
Procedure: as §1
8 weeks old mice were fed for 6 week a choline-deficient, L-amino acid-defined, high-fat diet (CDAHFD #A06071302, Research Diet, USA) consisting of 60 kcal % fat and 0.1% methionine by weight. For the 2 last weeks of the 6-week period, a group of mice were implanted with an osmotic pump containing the peptide of formula (I). Briefly, 200 μL osmotic pump were filled with 10 mg/mL of the peptide of formula (I) in PBS and were implanted subcutaneously into the mice according to the manufacturer's instructions (Alzet®, model pump #2002), to insure the peptide of formula (I) release at an estimated rate of 0.5 μL/h, which corresponds to an estimated amount of delivery of 5 mg of the peptide of formula (I) per kilogram of body weight per day (5 mg/kg BW/day). The control group was composed of mice that underwent the same chirurgical procedure used for osmotic pump implantation (sham-operated mice).
Liver histology. […] Fibrosis was assessed by Sirius Red staining. […]
Hepatic hydroxyproline was determined by hydrolizing 80-140 mg liver in a 6N HCl solution, overnight, at 110 degrees Celsius. […] Absorbance was measured at 550 nm and the results are expressed as micrograms of hepatic hydroxyproline per mg tissue.

Molecule	oral glucose tolerance (OGTT) ([1]; OGTT 10 days after initiation)	basal insulin level ([1]; p<0.05 vs PBS)	plasma HDL-cholesterol (HDL-C) level ([1]; two weeks)	plasma triglycerides level ([1]; two weeks)	liver/body weight ratio ([1]; two weeks, p<0.01 vs PBS)	hepatic triglyceride concentration ([1]; two weeks, p<0.05 vs PBS)	plasma ALT level ([1]; two weeks, p<0.05 vs PBS)	plasma level of total cholesterol ([1]; two weeks, p<0.05 vs PBS)	hepatic steatosis ([1]; two weeks, vs PBS)	femoral artery blood flow (wild-type C57B/L6J mice)	collagen deposition (Sirius Red staining) (C57B/L6J mice fed CDAHFD; p<0.01 vs sham-operated mice)	decrease in the concentration of hydroxyproline content per milligram of liver (C57B/L6J mice fed CDAHFD; p<0.05 vs sham-operated mice)	CDAHFD diet-induced increase of hepatic fibrosis (C57B/L6J mice fed CDAHFD; vs sham-operated mice)
CCCCCCCCCCCCCCCC(=O)NCCCC[C@H](NC(=O)[C@H](CCC(=O)O)NC(=O)[C@H](CCCNC(=N)N)NC(=O)[C@H](CO)NC(=O)[C@H](CCC(N)=O)NC(=O)[C@H](C)NC(=O)[C@H](CCCNC(=N)N)NC(=O)[C@H](Cc1ccccc1)NC(=O)[C@H](Cc1ccc(O)cc1)NC(=O)[C@H](CCCNC(=N)N)NC(=O)[C@H](CCC(=O)O)NC(=O)[C@H](CCC(=O)O)NC(=O)[C@H](CCC(=O)O)NC(=O)[C@H](C)NC(=O)[C@H](CCC(N)=O)NC(=O)[C@H](CCC(=O)O)NC(=O)[C@H](CCCNC(=N)N)NC(=O)[C@H](CCCCN)NC(=O)CNC(=O)[C@H](Cc1ccccc1)NC(=O)[C@H](C)NC(=O)CNC(=O)CNC(=O)[C@H](C)NC(=O)[C@H](CCC(=O)O)NC(=O)[C@H](CCCNC(=N)N)NC(=O)[C@@H](NC(=O)[C@H](CO)NC(=O)CNC(=O)[C@H](C)NC(=O)CNC(=O)[C@H](CCCNC(=N)N)NC(C)=O)[C@@H](C)CC)C(N)=O [peptide of formula (II), CH3CO-[SEQ ID NO: 1]-K-[palmitoyl]-NH2] (Ac-RGAGSIREAGGAFGKREQAEEERYFRAQSREK(Palmitoyl)-NH2)	improved	decreased	no effect	no effect	decrease	reduction	significantly reduced	significantly decrease	significantly reduced	–	–	–	–
Ac-RGAGSIREAGGAFGKREQAEEERYFRAQSRE-NH2 [peptide of formula (I), CH3CO-[SEQ ID NO: 1]-NH2]	–	–	–	–	–	–	–	–	–	increased	less collagen deposition	more than 35%	significantly attenuated
